US6355662B1, “Non-peptidyl inhibitors of a VLA-4 dependent cell binding useful in treating inflammatory, autoimmune, and respiratory diseases” (Pfizer Inc, priority 1998, dated 2002)

Compound | melting point [°C]
Cc1cccc(C)c1NC(=O)Nc1ccc(CC(=O)NC(CC(C)C)c2ncc(CCC(=O)O)s2)cc1 (stereo not shown) [Example 20, 3-{2-[1-(2-{4-[3-(2,6-Dimethyl-phenyl)-ureido]-phenyl}-acetylamino)-3-methyl-butyl]-thiazol-5-yl}-propionic acid] | 125 to 127
Cc1ccccc1NC(=O)Nc1ccc(CC(=O)NC2(c3cc(CCC(=O)O)on3)CCCC2)cc1 [Example 9, 3-[3-(1-{2-[4-(3-o-Tolyl-ureido)-phenyl]-acetylamino}-cyclopentyl)-isoxazol-5-yl]-propionic acid] | 195 to 197
CC(C)CC(NC(=O)Cc1ccc(NC(=O)Nc2ccccc2Cl)cc1)c1ncc(CCC(=O)O)s1 (stereo not shown) [Example 15, 3-{2-[1-(2-{4-[3-(2-Chloro-phenyl)-ureido]-phenyl}-acetylamino)-3-methyl-butyl]-thiazol-5-yl}-propionic acid] | 173 to 175
Cc1ccccc1NC(=O)Nc1ccc(CC(=O)NC(CC(C)C)c2cc(/C=C/C(=O)O)on2)cc1 (stereo not shown) [Example 18, 3-[3-(3-Methyl-1-{2-[4-(3-o-tolyl-ureido)-phenyl]-acetylamino}-butyl)-isoxazol-5-yl]-acrylic acid] | 136 to 138
CC(C)CC(NC(=O)Cc1ccc(NC(=O)Nc2ccccc2F)cc1)c1ncc(CCC(=O)O)s1 (stereo not shown) [Example 17, 3-{2-[1-(2-{4-[3-(2-Fluoro-phenyl)-ureido]-phenyl}-acetylamino)-3-methyl-butyl]-thiazol-5-yl}-propionic acid] | 83 to 85
Cc1cccc(Cl)c1NC(=O)Nc1ccc(CC(=O)NC(CC(C)C)c2ncc(CCC(=O)O)s2)cc1 (stereo not shown) [Example 21, 3-{2-[1-(2-{4-[3-(2-Chloro-6-methyl-phenyl)-ureido]-phenyl}-acetylamino)-3-methyl-butyl]-thiazol-5-yl}-propionic acid] | 160 to 162
CC(C)CC(NC(=O)Cc1ccc(NC(=O)Nc2c(Cl)cccc2Cl)cc1)c1ncc(CCC(=O)O)s1 (stereo not shown) [Example 19, 3-{2-[1-(2-{4-[3-(2,6-Dichloro-phenyl)-ureido]-phenyl}-acetylamino)-3-methyl-butyl]-thiazol-5-yl}-propionic acid] | 148 to 150
Cc1ccccc1NC(=O)Nc1ccc(CC(=O)NC(CC(C)C)C2=NOC(CCC(=O)O)(CCC(=O)O)C2)cc1 (stereo not shown) [Example 6, 3-[5-(2-Carboxy-ethyl)-3-(3-methyl-1-{2-[4-(3-o-tolyl-ureido)-phenyl]-acetylamino}-butyl)-4,5dihydro-isoxazol-5-yl]-propionic acid] | 173 to 175
COc1ccccc1NC(=O)Nc1ccc(CC(=O)NC(CC(C)C)c2ncc(CCC(=O)O)s2)cc1 (stereo not shown) [Example 16, 3-{2-[1-(2-{4-[3-(2-Methoxy-phenyl)-ureido]-phenyl}-acetylamino)-3-methyl-butyl]-thiazol-5-yl}-propionic acid] | 197 to 198
Cc1ccccc1NC(=O)Nc1ccc(CC(=O)N2CCN(CCC(=O)O)C(=O)C2Cc2ccccc2)cc1 (stereo not shown) [Example 4, (3-Benzyl-2-oxo-4-{[4-(3-o-tolyl-ureido)-phenyl]-acetyl}-piperazin-1-yl)-propionic acid] | 103 to 105
CCOC(=O)CC(=O)c1cc(C(CC(C)C)NC(=O)Cc2ccc(NC(=O)Nc3ccccc3Cl)cc2)no1 (stereo not shown) [Example 26, 3-{3-[1-(2-{4-[3-(2-Chloro-phenyl)-ureido]-phenyl}-acetylamino)-3-methyl-butyl]-isoxazol-5-yl}-3-oxo-propionic acid ethyl ester] | 150 to 152

Further lines, results first:

melting point [°C] | Compound
159 to 161 | CC(C)CC(NC(=O)Cc1ccc(NC(=O)Nc2ccccn2)cc1)c1cc(CCC(=O)O)on1 (stereo not shown) [Example 10, [3-(3-Methyl-1-{2-[4-(3-pyridin-2-yl-ureido)-phenyl]-acetylamino}-butyl)-isoxazol-5-yl]-propionic acid]
143 to 145 | CC(C)CC(NC(=O)Cc1ccc(NC(=O)Nc2ccccc2Cl)cc1)c1cc(CCC(=O)O)on1 (stereo not shown) [Example 24, 3-{3-[1-(2-{4-[3-(2-Chloro-phenyl)-ureido]-phenyl}-acetylamino)-3-methyl-butyl]-isoxazol-5-yl}propionic acid]
173 to 175 | CC(C)CC(NC(=O)Cc1ccc(NC(=O)Nc2ccccn2)cc1)c1ncc(CCC(=O)O)s1 (stereo not shown) [Example 11, [2-(3-Methyl-1-{2-[4-(3-pyridin-2-yl-ureido)-phenyl]-acetylamino}-butyl)-thiazol-5-yl]-propionic acid]
168 to 170 | Cc1ccccc1NC(=O)Nc1ccc(CC(=O)NC(CC(C)C)c2ncc(CCC(=O)O)o2)cc1 (stereo not shown) [Example 8, [2-(3-Methyl-1-{2-[4-(3-o-tolyl-ureido)-phenyl]-acetylamino}-butyl)oxazol-5-yl]-propionic acid]
146 to 148 | CC(C)CC(NC(=O)Cc1ccc(NC(=O)Nc2ccccc2)cc1)c1ncc(CCC(=O)O)s1 (stereo not shown) [Example 22, 3-[2-(3-Methyl-1-{2-[4-(3-phenyl-ureido)-phenyl]-acetylamino}-butyl)-thiazol-5-yl]-propionic acid]
